Test results from ChEMBL document CHEMBL1201862, “PubChem BioAssay data set” (2004).
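Test compounds were applied to cells in 96-well plates for 48 hours at 5 doses. GI50 is the concentration that inhibits growth by half.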 Calls of active or inactive are those of the source. No stated cut-off is given here; in the data, active = GI50 up to about 1.1 µM and inactive = higher.

Assays:
Assay in all cases: NCI-60 cell line screen, 48 h
[1] = tested on: 786-0
[2] = tested on: CAKI-1
[3] = tested on: HCT-116
[4] = tested on: HL-60
[5] = tested on: HT-29
[6] = tested on: KM12
[7] = tested on: M14
[8] = tested on: MOLT-4
[9] = tested on: NCI-H522
[10] = tested on: OVCAR-3
[11] = tested on: OVCAR-5
[12] = tested on: RXF 393
[13] = tested on: SK-MEL-2
[14] = tested on: U-251
[15] = tested on: UACC-62
[16] = tested on: A498

Measured: GI50

CCOc1ccc(/N=N/c2c(-c3ccccc3)nn(C(=O)CC(=O)Nc3ccccc3Cl)c2-c2ccccc2)cc1
inactive: [1] > 100 µM | [2] 23.4 µM | [3] 35.6 µM | [4] 25.6 µM | [5] 33.7 µM | [6] 46.1 µM | [7] > 100 µM | [8] 34.1 µM | [9] 78 µM | [10] 35.8 µM | [11] > 100 µM | [12] 34.2 µM | [13] > 100 µM | [14] 48.9 µM | [15] 77.1 µM

Clc1cccc(C2SCc3nc4ccccc4n32)c1Cl (configuration not stated)
inactive: [1] 17.7 µM | [16] 15.2 µM | [2] 16.3 µM | [3] 18.6 µM | [4] 5.18 µM | [5] 13.6 µM | [7] 16.6 µM | [8] 11.1 µM | [9] 16.6 µM | [10] 19 µM | [11] 13.9 µM | [12] 15.6 µM | [13] 16.7 µM | [14] 17.5 µM | [15] 19.7 µM

COc1c(-c2ccccc2)nc2ccc(Oc3ccccc3)nn12
inactive: [1] > 61.5 µM | [16] > 41.4 µM | [2] > 68.4 µM | [3] 13.2 µM | [4] 7.33 µM | [5] 37 µM | [6] > 54.2 µM | [7] > 59.8 µM | [8] 14.1 µM | [9] > 100 µM | [10] > 77.6 µM | [11] > 77.3 µM | [12] > 38.8 µM | [13] > 54 µM | [14] > 80.5 µM | [15] > 69.7 µM

CC(NC(=O)c1ccccc1)C(=O)N(Cc1ccccc1)Cc1ccccc1 (configuration not stated)
inactive: [1] 37.6 µM | [16] 25.6 µM | [2] 34.9 µM | [3] 25.2 µM | [5] 37.1 µM | [6] 26.6 µM | [7] 21 µM | [8] 14.1 µM | [9] 23.7 µM | [11] 33 µM | [12] 26.5 µM | [13] 20.7 µM | [14] 29.8 µM | [15] 16.4 µM

O=C(Cc1nc2ccccc2s1)C(=O)Nc1ccccc1C(F)(F)F
inactive: [1] > 100 µM | [16] > 100 µM | [2] > 100 µM | [3] > 100 µM | [4] > 100 µM | [5] > 100 µM | [6] > 100 µM | [7] > 100 µM | [8] > 100 µM | [9] > 100 µM | [10] > 100 µM | [11] > 100 µM | [12] > 100 µM | [13] > 100 µM | [14] > 100 µM | [15] > 100 µM

CCOC(=O)C1C(=O)C(C(=O)OCC)C(c2ccccc2)N(C)C1c1ccccc1 (configuration not stated)
inactive: [1] > 100 µM | [16] > 100 µM | [2] > 100 µM | [3] 58.2 µM | [4] 38.7 µM | [5] > 100 µM | [6] > 100 µM | [7] > 100 µM | [8] 49.5 µM | [9] 49.9 µM | [10] > 100 µM | [11] > 100 µM | [12] > 100 µM | [13] > 100 µM | [14] 95.9 µM | [15] 65.6 µM

Nc1nc2c3nc(Nc4ccccc4)sc3nc(=O)n2c2sc(Nc3ccccc3)nc12
inactive: [1] > 100 µM | [16] > 100 µM | [3] > 100 µM | [4] > 100 µM | [5] > 100 µM | [7] > 100 µM | [8] > 100 µM | [9] > 100 µM | [12] > 100 µM | [14] > 100 µM | [15] > 100 µM

N=C1N(c2ccccc2)C(=O)C23CCCC2C13N1CCOCC1 (configuration not stated)
inactive: [1] > 100 µM | [2] > 100 µM | [3] > 100 µM | [4] > 100 µM | [5] > 100 µM | [6] > 100 µM | [7] > 100 µM | [8] > 100 µM | [9] > 100 µM | [10] > 100 µM | [11] > 100 µM | [12] > 100 µM | [13] > 100 µM | [14] > 100 µM | [15] > 100 µM

NNC(=S)N/N=C(\CC1OC(=O)c2ccccc21)c1ccccc1O (configuration not stated)
inactive: [1] 43.3 µM | [16] 33.7 µM | [2] 71.8 µM | [3] 36.6 µM | [4] 24.4 µM | [5] 61.5 µM | [6] 40.4 µM | [7] 61.9 µM | [8] 23 µM | [9] 22.8 µM | [10] 37.5 µM | [11] 18.2 µM | [12] 36.4 µM | [13] 26.8 µM | [14] 17.3 µM | [15] 35.5 µM

O=C1C=Cc2c(-c3ccccc3)oc3cccc1c23
inactive: [1] 23.7 µM | [16] 15.4 µM | [2] 6.55 µM | [3] 16.9 µM | [4] 9.12 µM | [5] 23.4 µM | [6] 28.5 µM | [7] 30.5 µM | [8] 3.76 µM | [9] 15.3 µM | [10] 20.9 µM | [11] 26.4 µM | [12] 24.1 µM | [13] 67.1 µM | [14] 8.91 µM | [15] 11.2 µM

C1CCN(c2nc(=[N+]3CCCCC3)ss2)CC1
inactive: [1] > 100 µM | [16] > 100 µM | [2] > 100 µM | [3] > 100 µM | [4] > 100 µM | [5] > 100 µM | [6] 9.18 µM | [7] > 100 µM | [8] > 100 µM | [9] > 100 µM | [11] > 100 µM | [12] > 100 µM | [13] > 100 µM | [14] 49.5 µM | [15] > 100 µM

C/C=C/COC(=O)CO[N+](=O)[O-]
inactive: [1] > 100 µM | [2] > 100 µM | [3] > 100 µM | [4] > 100 µM | [5] > 100 µM | [6] > 100 µM | [7] > 100 µM | [8] > 100 µM | [9] > 100 µM | [10] > 100 µM | [11] > 100 µM | [12] > 100 µM | [13] > 100 µM | [14] > 100 µM | [15] > 10 µM

CCCCCCC(C)CCCCCCCCCCC(=O)O (configuration not stated)
inactive: [1] > 100 µM | [16] > 100 µM | [2] > 100 µM | [3] 93.5 µM | [4] > 100 µM | [5] > 100 µM | [6] 64.7 µM | [7] > 100 µM | [8] > 100 µM | [9] > 100 µM | [10] > 100 µM | [11] > 100 µM | [12] > 100 µM | [13] > 100 µM | [14] > 100 µM | [15] > 100 µM

CCCCC(/C=N/NC(=N)N)CC.Cc1cc(O)c(C(C)C)cc1S(=O)(=O)O
inactive: [1] > 100 µM | [3] 43.3 µM | [4] 8.85 µM | [6] 52.4 µM | [7] 36.2 µM | [8] 36.1 µM | [9] > 100 µM | [10] 37.2 µM | [12] 24.9 µM | [14] 33.4 µM | [15] 84.1 µM

O=C1CCNC(=O)NC1
inactive: [1] > 100 µM | [16] > 100 µM | [2] > 100 µM | [3] > 100 µM | [4] > 100 µM | [5] > 100 µM | [6] > 100 µM | [7] > 100 µM | [8] 23.1 µM | [9] > 100 µM | [10] > 100 µM | [11] > 100 µM | [12] > 100 µM | [13] > 100 µM | [14] > 100 µM | [15] > 100 µM

Clc1ccc(C2N3CCCCC3[C@@H]3c4[nH]c5ccccc5c4CCN23)cc1 (some centres not stated)
inactive: [1] > 100 µM | [16] 94.4 µM | [2] > 100 µM | [3] 30.2 µM | [4] 24.9 µM | [5] 22.5 µM | [7] 38.3 µM | [8] 64.7 µM | [10] 50.5 µM | [11] 56.8 µM | [12] 35.2 µM | [13] 34 µM | [14] 57.9 µM | [15] 50.6 µM

Cc1ccccc1NC(=O)CC1C(=O)Nc2ccccc2[S+]1[O-] (configuration not stated)
inactive: [1] 49.7 µM | [16] > 100 µM | [2] > 100 µM | [3] > 100 µM | [4] > 100 µM | [5] > 100 µM | [7] > 100 µM | [8] > 100 µM | [9] > 100 µM | [10] > 100 µM | [11] > 100 µM | [12] 26.6 µM | [13] > 100 µM | [14] 51.1 µM | [15] > 100 µM

COc1cc(/C=C/c2cccnc2)cc(OC)c1OC
inactive: [1] > 100 µM | [16] > 100 µM | [2] > 100 µM | [3] > 100 µM | [4] 98.2 µM | [5] > 100 µM | [6] > 100 µM | [7] > 100 µM | [8] > 100 µM | [9] 53.5 µM | [10] > 100 µM | [11] 58.9 µM | [12] > 100 µM | [14] > 100 µM | [15] 81.1 µM
